Measured values taken from patent US20230060873A1, “COMPOUNDS AND METHODS FOR FORMING ION CHANNELS IN BIOLOGICAL MEMBRANES” (Washington University, priority 2021, published 2023).

Tests used:
Bacillus subtilis = test: Toxicity (MIC) of MAcBCE and MAkBCE compounds on B. subtilis; format: cell-based; details: B. subtilis 168 WT with pRB374, 12 h, up to 400 μM
Method: XL1 blue strain Escherichia coli cells transformed with pET28a plasmid containing a kanamycin resistance gene, were grown at 37° C. in 2 mL of LB medium (Miller's LB broth, Research Products International) supplemented with 50 μg/mL of kanamycin, until the optical density (OD600) reached 0.6. The starting density of bacteria in the remainder of the experiments was a 1/100 dilution of this bacterial density, which was split into 4 mL cultures. A series of 400, 100, 10 and 5 mM stock solutions of each monoacylated benzo(crown-ether) (MAcBCE) and monoalkylated benzo(crown-ether) (MAkBCE) compounds in trifluoroethanol (TFE) were diluted by addition to the 4 mL cultures to reach final concentrations of 400, 200, 100, 50, 20, 15, 10, 5, 4, 3, 2 and 1 μM. The final TFE concentration was never higher than 0.1% v/v. Negative controls in the presence of TFE 0.1% v/v or in the absence of any treatment for each batch gave similar bacterial growth. The cultures were incubated at 37° C. with agitation for 12 h. Bacillus subtilis (168 WT) toxicity tests were carried out using an identical protocol, except they were transformed with the shuttle plasmid pRB374 in the presence of 5 μg/mL of kanamycin. […] Each compound was assayed a minimum of three times at each tested concentration.
The cytotoxicity of MABCE compounds was determined by measuring the MIC in liquid cultures of either the gram-negative bacteria Escherichia coli or the gram-positive bacteria Bacillus subtilis. […] As some curves overlap, portions of them are hidden. Values of MIC of 400 μM indicate that the value was either 400 μM, or it was higher and then was not determined. Each compound was assayed a minimum of three times at each different concentration. MICs for 5-A-4, 5-A-11, 6-A-11 and 6-O-11 could not be determined because the compounds were not soluble in TFE. While E. coli was not susceptible to any of the tested compounds at concentrations as high as 400 μM (data not shown), B. subtilis was susceptible to MABCE compounds bearing 15-crown-5 and 18-crown-6 scaffolds, but not to compounds containing a 12-crown-4 scaffold, as shown in FIG. 1.

[1] = Single-channel patch clamp recordings, inside-out, on giant multilamellar vesicles; format: biochemical; details: 10 μM; for single channel conductance with different ions: Na+ and NMDG+ compared with K+; for single channel activity with different ions: NaCl or NMDG-Cl; for NPO / Translocation rate: 100 mV
Method: The liposome preparation was based on protocols employed by Jiang et al., Activation of the archaeal ion channel MthK is exquisitely regulated by temperature, Elife 2020, 9, to reconstitute bacterial ion channels in proteoliposomes (giant multilamellar vesicles; GMLV). The method is adapted to produce plain liposomes. A total of 25 mg of asolectin from soybean (Avanti) was dissolved in 1 mL of chloroform, dried under argon, and kept overnight under vacuum. The dried lipids were resuspended using bath sonication in a resuspension solution (250 mM KCl, 30 mM HEPES, 0.1 mM CaCl2, pH adjusted at 7.6 with KOH) to a final concentration of 15 mg/mL and stored in 30 μL aliquots at −80° C. Aliquots were thawed and placed on a clean glass slide and dried in a desiccator under vacuum at room temperature. The lipids were then rehydrated with 50 μL resuspension solution for more than 2 h to yield the GMLVs.
Direct detection of electrophysiological activity in biological membranes is the gold standard for any putative ion channel. The 6-O-10 and 6-A-10 compounds were tested for ion channel activity by using the patch clamp technique in the inside-out configuration on giant multilamellar vesicles (GMLV) of asolectin.
Single-channel recordings were obtained by patch-clamping GMLV. After seal formation, patches were excised to obtain the inside-out configuration, and then the pipette solution and the bath solution were assumed to be “external” and “internal” solutions, respectively. Pipettes of borosilicate capillary glass 2-000-100 (Drummond Scientific Company) were pulled in a horizontal pipette puller P-97 (Sutter Instrument). Pipette resistance was 5-10 MΩ in any of the solutions tested. Data were acquired with an Axopatch 200A (Axon Instruments) amplifier. Current signals were sampled with a 16-bit A/D converter Axon Digi-data 1550B (Axon Instruments) at a sampling rate of 100 kHz and low-pass filtered at 10 kHz. Data was acquired using Clampex 10.7 (Molecular Devices) acquisition software and analysed with Clampfit 10.7 software (Axon Instruments) and Origin. The temperature in the room was approximately 21° C.
For gap-free experiments, symmetrical (same solution in pipette and bath) KCl solution (200 mM KCl, 30 mM HEPES, pH adjusted to 7.4 with KOH), NaCl solution (200 mM NaCl, 30 mM HEPES, pH adjusted to 7.4 with NaOH) or NMDG-Cl solution (200 mM NMDG, 30 mM HEPES, pH adjusted to 7.4 with HCl) were used for both the internal and external solutions. All the traces were recorded at 100 mV for 5 minutes.
FIGS. 12-14 show single channel activity elicited by 10 μM 6-O-10 in the presence of symmetrical KCl, NaCl and NMDG-Cl solutions, respectively. FIGS. 15-17 show single channel activity elicited by 10 μM 6-A-10 in the presence of symmetrical KCl, NaCl and NMDG-Cl solutions, respectively. Histograms for a total recording time of 900 s are included below every record.
Ion channel activity was measured in the presence of symmetrical 200 mM KCl, NaCl or NMDG-Cl at a concentration of 10 μM for each compound. Three different records of 300 s each were analyzed for every condition shown in (FIGS. 12-17).
To estimate the relative permeabilities of various ions, the product of number of channels (N) and open probability (Po) and the conductance from the amplitude histograms must be taken into consideration (Table 1). Unlike measurements from single ion channels, the present analysis is not constrained to recordings from patches that contain single functional channels. Thus, the possibility that the supramolecular assembly of synthetic channels is dynamic, and that new channels form during recordings with different oligomerization states cannot be ruled out. The only parameter that can be controlled is the concentration of the compounds in solution. All measurements reported here were obtained at 10 μM solution concentration. […]

| Structure (SMILES) | toxicity / susceptibility of B. subtilis (MIC, FIG. 1) (Bacillus subtilis) | single channel conductance with different ions [1] | efficiency of K+ permeation relative to NMDG+ ([1]; from translocation rates) [fold] | efficiency of K+ permeation relative to Na+ ([1]; from translocation rates) [fold] | single channel activity with different ions ([1]; symmetrical 200 mM KCl) | NPO ([1]; symmetrical 200 mM KCl) | Translocation rate ([1]; symmetrical 200 mM KCl) | NPO ([1]; symmetrical 200 mM NMDG-Cl) | Translocation rate ([1]; symmetrical 200 mM NMDG-Cl) | NPO ([1]; symmetrical 200 mM NaCl) | Translocation rate ([1]; symmetrical 200 mM NaCl) | efficiency of K+ transport compared to 6-O-10 [1] |
| --- | --- | --- | --- | --- | --- | --- | --- | --- | --- | --- | --- | --- |
| CCCCCCCCCC(=O)c1ccc2c(c1)OCCOCCOCCOCCOCCO2 [Compound 6-O-10, 1-(2,3,5,6,8,9,11,12,14,15-decahydrobenzo[b][1,4,7,10,13,16]hexaoxacyclooctadecin-18-yl)decan-1-one] | most toxic | only half that observed in the presence of K^+ | 7 | 3.5 | highest in the presence of K^+ and Na^+ as compared to NMDG^+ | 0.58 ± 0.16 | 43.4 ± 5.8 10^6/sec | 0.25 ± 0.13 | 7.1 ± 3.4 10^6/sec | 0.56 ± 0.10 | 11.3 ± 1.1 10^6/sec | – |
| CCCCCCCCCCc1ccc2c(c1)OCCOCCOCCOCCOCCO2 [Compound 6-A-10, 18-decyl-2,3,5,6,8,9,11,12,14,15-decahydrobenzo[b][1,4,7,10,13,16]hexaoxacyclooctadecine] | most toxic | very similar with the different ions | – | – | does not vary significantly | 0.18 ± 0.02 | 3.2 ± 0.3 10^6/sec | 0.19 ± 0.12 | 5.0 ± 1.9 10^6/sec | 0.16 ± 0.02 | 4.5 ± 0.7 10^6/sec | an order of magnitude less efficient |
